The text below walks through data of publication PMC6669961, “Design and Optimization of Thioglycosyl–naphthalimides as Efficient Inhibitors Against Human O-GlcNAcase” (Frontiers in Chemistry, 2019).

One assay addresses hOGA. Particulars: read-out: Ki against hOGA, cited from earlier work.
A further assay has as its target HsHexB. The following applies: read-out: Ki against HsHexB, cited from earlier work.
For assay [1], the target named is T1, human β-N-acetylhexosaminidase B (HsHexB) (Homo sapiens, UniProt P07686).
T1 construct: made in house; host or cells: Pichia pastoris
T1 sequence (P07686 122-556): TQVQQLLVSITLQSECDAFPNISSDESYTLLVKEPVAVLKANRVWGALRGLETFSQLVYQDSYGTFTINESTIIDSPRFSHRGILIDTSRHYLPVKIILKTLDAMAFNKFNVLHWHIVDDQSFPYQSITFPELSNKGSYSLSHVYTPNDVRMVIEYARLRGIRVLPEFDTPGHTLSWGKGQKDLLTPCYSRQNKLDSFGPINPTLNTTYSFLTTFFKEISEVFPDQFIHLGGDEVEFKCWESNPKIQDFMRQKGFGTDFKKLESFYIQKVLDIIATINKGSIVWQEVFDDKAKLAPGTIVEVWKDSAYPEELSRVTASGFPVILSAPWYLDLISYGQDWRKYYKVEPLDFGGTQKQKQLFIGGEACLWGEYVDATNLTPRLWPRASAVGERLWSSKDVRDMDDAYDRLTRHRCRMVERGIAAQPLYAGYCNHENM
Briefly: Enzyme inhibitory activity test against HsHexB (4-MU-GlcNAc substrate, end-point fluorescence; Dixon plots for Ki). The class given is biochemical. Particulars: pH 4.5; for inhibition at 100 µM: 100 μM inhibitor, 40 μM 4-MU-GlcNAc, 30°C, 30 min, read-out: Inhibition rate at 100 μM (%) HsHexB; for Ki: Dixon plots, 4-MU-GlcNAc 40, 20, 10 μM. The procedure: (§1) Human O-GlcNAcase (hOGA) was expressed in Escherichia coli BL21(DE3) and purified according to previous methods (Kong et al., [2016]). Human β-N-acetylhexosaminidase B (HsHexB) was overexpressed in Pichia pastoris and then purified as described previously (Shen et al., [2018a]).
(§2) All target compounds were evaluated for their inhibitory activities against hOGA and HsHexB in end-point experiments. 4-Methylumbelliferyl N-acetyl-β-D-glucosaminide (4-MU-GlcNAc) was used as substrate. In a final assay volume of 100 μL, inhibitor and substrate (40 μM) were mixed with Britton-Robinson buffer (hOGA, pH 6.5; HsHexB, pH 4.5) and enzyme; then, the assay components were incubated at 30°C for 30 min. Subsequently, the enzymatic reaction was terminated by the addition of 100 μL 0.5 M Na2CO3 solution. The fluorescence of the liberated 4-methylumbelliferone (Mu) was quantified at an excitation of 366 nm and emission of 445 nm on a Varioskan Flash microplate reader (Thermo Fisher Scientific, USA). To determine the inhibition constant (Ki), Dixon plots were performed by changing the concentration of the 4-MU-GlcNAc (40, 20, and 10 μM).

In another assay the target is T2, human O-GlcNAcase (hOGA) (Homo sapiens, UniProt O60502).
T2 construct: made in house; host or cells: Escherichia coli BL21(DE3)
T2 sequence (O60502 1-916): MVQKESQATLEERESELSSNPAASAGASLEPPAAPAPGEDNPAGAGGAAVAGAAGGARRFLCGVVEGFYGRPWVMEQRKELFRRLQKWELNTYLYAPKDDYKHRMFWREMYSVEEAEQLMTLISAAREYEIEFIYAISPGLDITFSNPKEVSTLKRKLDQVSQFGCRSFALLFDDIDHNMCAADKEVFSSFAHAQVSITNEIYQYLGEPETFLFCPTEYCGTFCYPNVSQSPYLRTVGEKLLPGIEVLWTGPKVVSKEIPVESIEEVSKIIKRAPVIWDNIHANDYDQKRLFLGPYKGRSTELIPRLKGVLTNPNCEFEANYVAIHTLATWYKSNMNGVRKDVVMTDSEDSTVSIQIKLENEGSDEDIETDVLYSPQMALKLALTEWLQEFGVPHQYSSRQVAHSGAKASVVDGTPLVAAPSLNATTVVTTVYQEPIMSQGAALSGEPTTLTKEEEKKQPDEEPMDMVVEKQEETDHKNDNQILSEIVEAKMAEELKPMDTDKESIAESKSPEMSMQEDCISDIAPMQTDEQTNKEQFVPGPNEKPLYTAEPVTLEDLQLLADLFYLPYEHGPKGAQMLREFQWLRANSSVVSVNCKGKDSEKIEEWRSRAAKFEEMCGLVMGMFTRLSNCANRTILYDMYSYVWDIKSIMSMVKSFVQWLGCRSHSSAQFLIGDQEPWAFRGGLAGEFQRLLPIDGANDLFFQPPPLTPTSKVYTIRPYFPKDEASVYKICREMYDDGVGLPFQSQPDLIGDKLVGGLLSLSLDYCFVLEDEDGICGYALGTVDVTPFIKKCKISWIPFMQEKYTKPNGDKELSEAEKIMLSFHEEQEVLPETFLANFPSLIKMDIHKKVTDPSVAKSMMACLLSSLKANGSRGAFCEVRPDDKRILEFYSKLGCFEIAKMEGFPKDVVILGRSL
Nature of the assay: Enzyme inhibitory activity test against hOGA (4-MU-GlcNAc substrate, end-point fluorescence; Dixon plots for Ki). The class given is biochemical. The following applies: for inhibition at 100 µM: 100 μM inhibitor, 40 μM 4-MU-GlcNAc, 30°C, 30 min, read-out: Inhibition rate at 100 μM (%) hOGA; for inhibition at 100 µM / Ki: pH 6.5; for Ki: Dixon plots, 4-MU-GlcNAc 40, 20, 10 μM; for decrease in inhibitory activity against hOGA: NHC2H5 (17a or 17d) compared to NHCH3 (16h or 17c). As for the experimental part: as §1, §2

The next assay has as its target HsHex. Particulars: read-out: Ki against HsHex, cited from earlier work.
[2] abbreviates: lead compounds 15b (1) and 5c (2) of previous research, ref Chen et al., 2018, Shen et al., 2018a.
The mark [3] stands for this setting: 13r (3) of previous research, ref Shen et al., 2018b.
Where [4] appears, read: GlcNAcstatin C, ref Dorfmueller et al., 2009.
Where [5] appears, read: Gluco-nagstatin, ref Terinek and Vasella, 2005.

Structures are written as SMILES. Read-outs that look alike come from different tables or passages of the source.

On to `CC(=O)OC[C@H]1O[C@@H](SCC(=O)NCCCN2C(=O)c3cccc4c(N5CCCCC5)ccc(c34)C2=O)[C@@](O)(NC(=O)c2ccc(F)cc2)[C@@H](OC(C)=O)[C@@H]1OC(C)=O` [Compound 1], for which the values for the Ki on hOGA (setting [2]) and at HsHexB (setting [2]) were 3.8 µM and 30.4 µM, respectively.

Consider `CC(=O)N[C@@H]1[C@@H](O)[C@H](O)[C@@H](CO)O[C@H]1SCC(=O)NCCCN1C(=O)c2cccc3cccc(c23)C1=O` [Compound 2, reference compound], for which the inhibition at 100 µM was determined as 45.5 ± 0.5% in assay [1] and 97.6 ± 0.9% at human O-GlcNAcase (hOGA). For the same compound, the Ki in assay [1] was > 100 µM; on human O-GlcNAcase (hOGA) it was 3.46 ± 0.11 µM; on hOGA (setting [2]) it was 3.46 µM; at HsHexB (setting [2]), > 100 µM.

Consider `CC(=O)N[C@@H]1[C@@H](O)[C@H](O)[C@@H](CO)O[C@H]1SCCNCCCN1C(=O)c2cccc3c(N4CCCCC4)ccc(c23)C1=O` [Compound 3], for which the figures for the Ki at hOGA (setting [3]) and on HsHexB (setting [3]) were 0.6 µM and > 100 µM, respectively.

In the case of `CNC(=O)N[C@@H]1[C@@H](O)[C@H](O)[C@@H](CO)O[C@H]1SCC(=O)NCCCN1C(=O)c2cccc3c(N4CCCCC4)ccc(c23)C1=O` [Compound 16h], in assay [1], the inhibition at 100 µM is 25.2 ± 0.3% and the inhibition constant Ki is > 100 µM. Besides, at human O-GlcNAcase (hOGA), the inhibition at 100 µM amounted to 85.5 ± 1.5% and the affinity, expressed as Ki, was 6.6 ± 0.22 µM. For the same compound, the “potency against hOGA reduced” value at human O-GlcNAcase (hOGA) (16h (NHCH3) compared to 16d (CH2CH3)) is recorded as “about 4 fold”.

On to `O=C(CS[C@@H]1O[C@H](CO)[C@@H](O)[C@H](O)[C@H]1NC(=O)c1ccccc1)NCCCN1C(=O)c2cccc3c(Br)ccc(c23)C1=O` [Compound 16j], for which the inhibition at 100 µM came out at 49.1 ± 1.4% in assay [1] and 41.1 ± 0.6% on human O-GlcNAcase (hOGA). The Ki (in assay [1]; at human O-GlcNAcase (hOGA)) was > 100 µM each time.

Take `O=C(CS[C@@H]1O[C@H](CO)[C@@H](O)[C@H](O)[C@H]1NC(=O)c1ccc(F)cc1)NCCCN1C(=O)c2cccc3c(Br)ccc(c23)C1=O` [Compound 16k]: in assay [1], the inhibition at 100 µM stood at 48.5 ± 1.7% and the Ki was > 100 µM. On human O-GlcNAcase (hOGA), the inhibition at 100 µM stood at 48 ± 0.9% and the Ki is > 100 µM.

With `CCC(=O)N[C@@H]1[C@@H](O)[C@H](O)[C@@H](CO)O[C@H]1SCC(=O)NCCCN1C(=O)c2cccc3c(Br)ccc(c23)C1=O` [Compound 16l], in assay [1], the inhibition at 100 µM was determined as 41.8 ± 1% and the Ki was > 100 µM. On human O-GlcNAcase (hOGA), the inhibition at 100 µM is 97.7 ± 2.2% and the Ki turned out to be 0.72 ± 0.01 µM.

With `CCCC(=O)N[C@@H]1[C@@H](O)[C@H](O)[C@@H](CO)O[C@H]1SCC(=O)NCCCN1C(=O)c2cccc3c(Br)ccc(c23)C1=O` [Compound 16m], in assay [1], the inhibition at 100 µM amounted to 39.8 ± 2.3% and the Ki is > 100 µM. In addition, at human O-GlcNAcase (hOGA), the inhibition at 100 µM is 97.1 ± 1.3% and affinity was put at a Ki of 4.36 ± 0.21 µM.

Regarding `CC(C)C(=O)N[C@@H]1[C@@H](O)[C@H](O)[C@@H](CO)O[C@H]1SCC(=O)NCCCN1C(=O)c2cccc3c(Br)ccc(c23)C1=O` [Compound 16n], in assay [1], the inhibition at 100 µM is 37 ± 0.4% and the Ki is > 100 µM. Further, on human O-GlcNAcase (hOGA), the inhibition at 100 µM was 87.8 ± 0.4% and the Ki was determined as 6.92 ± 0.1 µM.

Regarding `O=C(CS[C@@H]1O[C@H](CO)[C@@H](O)[C@H](O)[C@H]1NC(=O)C(F)(F)F)NCCCN1C(=O)c2cccc3c(Br)ccc(c23)C1=O` [Compound 16o], in assay [1], the inhibition at 100 µM was found to be 37.7 ± 0.9% and the Ki was > 100 µM. Besides, at human O-GlcNAcase (hOGA), the inhibition at 100 µM is 90.9 ± 0.2% and affinity was put at a Ki of 4.62 ± 0.18 µM.

As to `CCNC(=O)N[C@@H]1[C@@H](O)[C@H](O)[C@@H](CO)O[C@H]1SCC(=O)NCCCN1C(=O)c2cccc3c(N4CCCCC4)ccc(c23)C1=O` [Compound 17a], in assay [1], the inhibition at 100 µM turned out to be 25.9 ± 0.3% and the Ki was > 100 µM. Further, on human O-GlcNAcase (hOGA), the inhibition at 100 µM worked out at 68.6 ± 0.8%, the affinity corresponds to a Ki of 12 ± 0.3 µM and the “decrease in inhibitory activity against hOGA” value lay in the range of 2 to 3 fold.

`CCCNC(=O)N[C@@H]1[C@@H](O)[C@H](O)[C@@H](CO)O[C@H]1SCC(=O)NCCCN1C(=O)c2cccc3c(N4CCCCC4)ccc(c23)C1=O` [Compound 17b]: the inhibition at 100 µM in assay [1] came to 22.7 ± 0.2%; on human O-GlcNAcase (hOGA), 66.3 ± 0.6%. The Ki is > 100 µM in assay [1] and 13.83 ± 0.02 µM on human O-GlcNAcase (hOGA).

With `CNC(=O)N[C@@H]1[C@@H](O)[C@H](O)[C@@H](CO)O[C@H]1SCC(=O)NCCCN1C(=O)c2cccc3c(Br)ccc(c23)C1=O` [Compound 17c], in assay [1], the inhibition at 100 µM is 40.7 ± 0.7% and the inhibition constant (Ki) was > 100 µM. Further, on human O-GlcNAcase (hOGA), the inhibition at 100 µM was 96.7 ± 1.6% and the affinity, expressed as Ki, was 2.17 ± 0.13 µM.

In the case of `CCNC(=O)N[C@@H]1[C@@H](O)[C@H](O)[C@@H](CO)O[C@H]1SCC(=O)NCCCN1C(=O)c2cccc3c(Br)ccc(c23)C1=O` [Compound 17d], in assay [1], the inhibition at 100 µM turned out to be 26.3 ± 1.1% and the Ki was > 100 µM. Further, at human O-GlcNAcase (hOGA), the inhibition at 100 µM amounted to 83.5 ± 0.9%, the Ki was determined as 7.11 ± 0.01 µM and the “decrease in inhibitory activity against hOGA” value is given as 2 to 3 fold.

With `CC(C)C(=O)N[C@H]1c2nc(CCc3ccccc3)cn2[C@H](CO)[C@@H](O)[C@@H]1O` [GlcNAcstatin C], the results for the inhibitory constant (Ki) on HsHex (setting [4]) and on hOGA (setting [4]) were 0.55 µM and 0.0044 µM, respectively.

Take `CC(=O)N[C@H]1c2nc(CC(=O)O)cn2[C@H](CO)[C@@H](O)[C@@H]1O` [Gluco-nagstatin]: the Ki is 0.01 µM at HsHex (setting [5]) and 0.42 µM on hOGA (setting [5]).

On to `CC1=N[C@@H]2[C@@H](O)[C@H](O)[C@@H](CO)O[C@@H]2S1` [NGT, NAG-thiazoline], for which the Ki on HsHex (NGT, ref Knapp et al., 1996) is 0.07 µM.

Regarding `CCNC1=N[C@@H]2[C@@H](O)[C@H](O)[C@@H](CO)O[C@@H]2S1` [Thiamet-G], at HsHex (Thiamet-G, ref Yuzwa et al., 2008), the Ki was 750 µM.

In general, Ki refers to the dissociation constant of the complex between target and ligand, obtained from inhibition or displacement. As a reminder, the inhibition is the percentage by which the read-out fell short of the control.
